Broadly, the IC50 is the concentration needed to halve the response being measured.

This test deals with T1, Human plasma kallikrein (Homo sapiens, UniProt P03952).
T1 construct: yields a heavy chain (371 amino acids) and a light chain (248 amino acids); purchased Enzyme Research Laboratories
T1 sequence (P03952 391-638 limits assumed): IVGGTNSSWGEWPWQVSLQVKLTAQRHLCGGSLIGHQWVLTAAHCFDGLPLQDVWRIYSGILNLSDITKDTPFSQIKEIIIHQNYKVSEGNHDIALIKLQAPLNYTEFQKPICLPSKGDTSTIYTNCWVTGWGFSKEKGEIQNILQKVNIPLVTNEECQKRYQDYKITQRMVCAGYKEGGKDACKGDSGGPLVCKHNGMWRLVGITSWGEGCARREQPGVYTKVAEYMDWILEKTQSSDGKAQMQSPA
T1 sequence (P03952 20-390 partner limits assumed): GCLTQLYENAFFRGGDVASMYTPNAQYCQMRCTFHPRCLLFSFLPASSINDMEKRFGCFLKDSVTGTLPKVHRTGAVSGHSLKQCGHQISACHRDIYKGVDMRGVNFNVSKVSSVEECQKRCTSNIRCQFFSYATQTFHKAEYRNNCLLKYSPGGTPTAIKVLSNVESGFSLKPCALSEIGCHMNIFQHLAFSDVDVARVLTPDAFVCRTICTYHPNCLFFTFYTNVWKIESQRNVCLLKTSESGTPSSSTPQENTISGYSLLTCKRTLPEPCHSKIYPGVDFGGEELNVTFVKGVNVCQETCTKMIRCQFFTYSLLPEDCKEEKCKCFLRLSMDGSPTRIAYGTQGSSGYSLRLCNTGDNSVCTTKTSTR
In words: Kallikrein Assay (fluorogenic substrate hydrolysis, AFC release). The conditions noted are these: purified Human plasma kallikrein 0.5 nM; substrate Acetyl-K—P—R-AFC 100 mM; 50 mM HEPES pH 7.4. Format: biochemical. The method in brief: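 Purified human plasma kallikrein (0.5 nM final) with Acetyl-K-P-R-AFC substrate (final ≤0.2 Km) in 50 mM HEPES pH 7.4, 150 mM NaCl, 5 mM CaCl2, 0.1% PEG 8000, after enzyme–inhibitor equilibration; room temperature or 37° C. AFC fluorescence (405 Ex/510 Em nm) under linear conditions; IC50 by four-parameter fit, Ki via Cheng-Prusoff.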
`Cc1ccc(C#N)c([C@H]2C[C@@H](NC(=O)c3cn(C(C)c4cnc(N5C[C@H]6C[C@H]6C5=O)cc4C)nn3)C2)c1` (single isomer, unassigned) [Example 66, N-((cis)-3-(2-cyano-5-methylphenyl)cyclobutyl)-1-((R or S)-1-(4-methyl-6-((1R,5S)-2-oxo-3-azabicyclo[3.1.0]hexan-3-yl)pyridin-3-yl)ethyl)-1H-1,2,3-triazole-4-carboxamide] yielded a concentration for half-maximal inhibition (IC50) of 62.6 nM.
As for `COCc1nn(C(C)c2cnc(N3C[C@H]4C[C@H]4C3=O)cc2C)cc1C(=O)N[C@H]1C[C@@H](c2cc(Cl)ccc2C#N)C1` (single isomer, unassigned) [Example 50, N-((cis)-3-(5-chloro-2-cyanophenyl)cyclobutyl)-3-(methoxymethyl)-1-((S or R)-1-(4-methyl-6-((1R,5S)-2-oxo-3-azabicyclo[3.1.0]hexan-3-yl)pyridin-3-yl)ethyl)-1H-pyrazole-4-carboxamide], the IC50 is 8.2 nM.
As for `Cc1cc(N2C[C@H]3C[C@H]3C2=O)cnc1C(C)n1cc(C(=O)N[C@H]2C[C@@H](c3cc(Cl)ccc3C#N)C2)nn1` (single isomer, unassigned) [Example 91, N-((cis)-3-(5-chloro-2-cyanophenyl)cyclobutyl)-1-((S or R)-1-(3-methyl-5-((1R,5S)-2-oxo-3-azabicyclo[3.1.0]hexan-3-yl)pyridin-2-yl)ethyl)-1H-1,2,3-triazole-4-carboxamide], the figure is 1.5 nM; as for `Cc1cc(N2C[C@H]3C[C@H]3C2=O)ncc1C(C)n1cc(C(=O)N[C@@H]2CC[C@H](c3cc(Cl)ccc3C#N)C2)nn1` (single isomer, unassigned) [Example 62, N-((1R,3S)-3-(5-chloro-2-cyanophenyl)cyclopentyl)-1-((R or S)-1-(4-methyl-6-((1R,5S)-2-oxo-3-azabicyclo[3.1.0]hexan-3-yl)pyridin-3-yl)ethyl)-1H-1,2,3-triazole-4-carboxamide], 2710 nM; as for `Cc1cc(N2C[C@H]3C[C@H]3C2=O)ncc1C(C)n1cc(C(=O)N[C@H]2C[C@@H](c3cc(Cl)ccc3C(F)F)C2)nn1` (single isomer, unassigned) [Example 72, N-((cis)-3-(5-chloro-2-(difluoromethyl)phenyl)cyclobutyl)-1-((S or R)-1-(4-methyl-6-((1R,5S)-2-oxo-3-azabicyclo[3.1.0]hexan-3-yl)pyridin-3-yl)ethyl)-1H-1,2,3-triazole-4-carboxamide], 10000 nM.
Then `Cc1cc(N2C[C@H]3C[C@H]3C2=O)nnc1C(C)n1cc(C(=O)N[C@H]2C[C@@H](c3cc(Cl)ccc3C#N)C2)cn1` (single isomer, unassigned) [Example 48, N-((cis)-3-(5-chloro-2-cyanophenyl)cyclobutyl)-1-((S or R)-1-(4-methyl-6-((1R,5S)-2-oxo-3-azabicyclo[3.1.0]hexan-3-yl)pyridazin-3-yl)ethyl)-1H-pyrazole-4-carboxamide], with 127 nM; and `[2H][C@]1(NC(=O)c2cn([C@@H](C)c3cnc(N4C[C@H]5C[C@H]5C4=O)cc3C)nn2)C[C@@H](c2cc(Cl)ccc2C#N)C1` [Example 148, N-((cis)-3-(5-chloro-2-cyanophenyl)cyclobutyl-1-d)-1-((S)-1-(4-methyl-6-((1R,5S)-2-oxo-3-azabicyclo[3.1.0]hexan-3-yl)pyridin-3-yl)ethyl)-1H-1,2,3-triazole-4-carboxamide], with 0.6 nM.
As for `Cc1ncc(C(C)n2cc(C(=O)N[C@H]3C[C@@H](c4cc(Cl)ccc4C#N)C3)nn2)cc1N1C[C@H]2C[C@H]2C1=O` (single isomer, unassigned) [Example 140, N-((cis)-3-(5-chloro-2-cyanophenyl)cyclobutyl)-1-((S or R)-1-(6-methyl-5-((1R,5S)-2-oxo-3-azabicyclo[3.1.0]hexan-3-yl)pyridin-3-yl)ethyl)-1H-1,2,3-triazole-4-carboxamide], the figure is 11.3 nM.
As to `Cc1c([C@@H](C)n2cc(C(=O)NC3CC(c4cc(Cl)ccc4C#N)C3)cn2)cnc(N2C[C@H]3C[C@H]3C2=O)c1Cl` (single isomer, unassigned) [Example 167], 1.9 nM corresponded to half-maximal inhibition (IC50).
In turn, `Cc1cc(N2C[C@H]3C[C@H]3C2=O)nnc1C(C)n1cc(C(=O)N[C@H]2C[C@@H](c3cc(Cl)ccc3C#N)C2)nn1` (single isomer, unassigned) [Example 118, N-((cis)-3-(5-chloro-2-cyanophenyl)cyclobutyl)-1-((S or R)-1-(4-methyl-6-((1R,5S)-2-oxo-3-azabicyclo[3.1.0]hexan-3-yl)pyridazin-3-yl)ethyl)-1H-1,2,3-triazole-4-carboxamide] came in with an IC50 of 4.7 nM.
Then `Cc1cc(N2C[C@H]3C[C@H]3C2=O)ncc1C(C)n1cc(C(=O)N[C@H]2C[C@@H](c3cc(Cl)ccc3C#N)C2)c(C)n1` (single isomer, unassigned) [Example 20, N-((cis)-3-(5-chloro-2-cyanophenyl)cyclobutyl)-3-methyl-1-((S or R)-1-(4-methyl-6-((1R,5S)-2-oxo-3-azabicyclo[3.1.0]hexan-3-yl)pyridin-3-yl)ethyl)-1H-pyrazole-4-carboxamide], with 2.1 nM; and `CC(c1ncc(N2C[C@H]3C[C@H]3C2=O)cc1F)n1cc(C(=O)N[C@H]2C[C@@H](c3cc(Cl)ccc3C#N)C2)nn1` (single isomer, unassigned) [Example 92, N-((cis)-3-(5-chloro-2-cyanophenyl)cyclobutyl)-1-((R or S)-1-(3-fluoro-5-((1R,5S)-2-oxo-3-azabicyclo[3.1.0]hexan-3-yl)pyridin-2-yl)ethyl)-1H-1,2,3-triazole-4-carboxamide], with 38.1 nM; and `COc1cc(N2C[C@H]3C[C@H]3C2=O)ncc1C(C)n1cc(C(=O)N[C@H]2C[C@@H](c3cc(Cl)ccc3C#N)C2)nn1` (single isomer, unassigned) [Example 88, N-((cis)-3-(5-chloro-2-cyanophenyl)cyclobutyl)-1-((R or S)-1-(4-methoxy-6-((1R,5S)-2-oxo-3-azabicyclo[3.1.0]hexan-3-yl)pyridin-3-yl)ethyl)-1H-1,2,3-triazole-4-carboxamide], with 11.3 nM.
Take `Cc1cc(N2C[C@H]3C[C@H]3C2=O)ncc1C(C)n1cc(C(=O)N[C@H]2C[C@@H](c3cc(Cl)ccc3OC(F)F)C2)nn1` (single isomer, unassigned) [Example 69, N-((cis)-3-(5-chloro-2-(difluoromethoxy)phenyl)cyclobutyl)-1-((R or S)-1-(4-methyl-6-((1R,5S)-2-oxo-3-azabicyclo[3.1.0]hexan-3-yl)pyridin-3-yl)ethyl)-1H-1,2,3-triazole-4-carboxamide]: it took 2790 nM to reach half-maximal inhibition (IC50).
`Cc1cc(N2C[C@H]3C[C@H]3C2=O)ncc1C(C)n1cc(C(=O)N[C@H]2C[C@@H](c3cc(Cl)ccc3C#N)C2)c(C)n1` (single isomer, unassigned) [Example 19, N-((cis)-3-(5-chloro-2-cyanophenyl)cyclobutyl)-3-methyl-1-((R or S)-1-(4-methyl-6-((1R,5S)-2-oxo-3-azabicyclo[3.1.0]hexan-3-yl)pyridin-3-yl)ethyl)-1H-pyrazole-4-carboxamide] gave a half-maximal inhibitory concentration (IC50) of 0.3 nM.
Then `Cc1cc([C@@](C)(O)c2cc(C(=O)N[C@H]3C[C@@H](c4cc(Cl)ccc4C#N)C3)no2)cnc1N1C[C@H]2C[C@H]2C1=O` (single isomer, unassigned) [Example 156], with 0.7 nM; and `Cc1nc(C(C)n2cc(C(=O)N[C@H]3C[C@@](C)(c4cc(Cl)ccc4C#N)C3)nn2)cnc1N1C[C@H]2C[C@H]2C1=O` (single isomer, unassigned) [Example 109, N-((cis)-3-(5-chloro-2-cyanophenyl)-3-methylcyclobutyl)-1-((R or S)-1-(6-methyl-5-((1R,5S)-2-oxo-3-azabicyclo[3.1.0]hexan-3-yl)pyrazin-2-yl)ethyl)-1H-1,2,3-triazole-4-carboxamide], with 0.2 nM.
Then `Cc1cc(N2C[C@H]3C[C@H]3C2=O)ncc1C(C)n1cc(C(=O)N[C@H]2C[C@@H](c3cc(Cl)ccn3)C2)nn1` (single isomer, unassigned) [Example 74, N-((cis)-3-(4-chloropyridin-2-yl)cyclobutyl)-1-((S or R)-1-(4-methyl-6-((1R,5S)-2-oxo-3-azabicyclo[3.1.0]hexan-3-yl)pyridin-3-yl)ethyl)-1H-1,2,3-triazole-4-carboxamide], with 3.9 nM; and `Cc1cc(N2C[C@H]3C[C@H]3C2=O)ncc1C(C)n1cc(C(=O)N[C@H]2C[C@@](C)(c3cc(Cl)ccc3C#N)C2)nn1` (single isomer, unassigned) [Example 64, N-((cis)-3-(5-chloro-2-cyanophenyl)-3-methylcyclobutyl)-1-((R or S)-1-(4-methyl-6-((1R,5S)-2-oxo-3-azabicyclo[3.1.0]hexan-3-yl)pyridin-3-yl)ethyl)-1H-1,2,3-triazole-4-carboxamide], with 15.9 nM; and `CC(c1cnc(N2C[C@H]3C[C@H]3C2=O)c(F)c1)n1cc(C(=O)N[C@H]2C[C@@H](c3cc(Cl)ccc3C#N)C2)nn1` (single isomer, unassigned) [Example 103, N-((cis)-3-(5-chloro-2-cyanophenyl)cyclobutyl)-1-((R or S)-1-(5-fluoro-6-((1R,5S)-2-oxo-3-azabicyclo[3.1.0]hexan-3-yl)pyridin-3-yl)ethyl)-1H-1,2,3-triazole-4-carboxamide], with 2.1 nM.
The compound `Cc1ccc(C#N)c([C@H]2C[C@@H](NC(=O)c3cn(C(C)c4nnc(N5C[C@H]6C[C@H]6C5=O)c(C)c4C)nn3)C2)n1` (single isomer, unassigned) [Example 127, N-((cis)-3-(3-cyano-6-methylpyridin-2-yl)cyclobutyl)-1-((R or S)-1-(4,5-dimethyl-6-((1R,5S)-2-oxo-3-azabicyclo[3.1.0]hexan-3-yl)pyridazin-3-yl)ethyl)-1H-1,2,3-triazole-4-carboxamide] yielded an IC50 of 702 nM.

For the origin of these results see patent US12528786B2, “Plasma kallikrein inhibitors” (Merck Sharp & Dohme LLC, priority 2020, dated 2026).
